The text below walks through data of BindingDB's records for doi:10.7270/Q2B27SRF (Broad Institute, 2010).

For this assay, the target named is Serine/threonine-protein kinase 33 (Homo sapiens, UniProt Q9BYT3). Nature of the assay: inhibition of STK33 phosphorylation of MBP – biochemical, luminescence, cell-free, retest, dose response (AID 2821).
Serine/threonine-protein kinase 33, sequence (Q9BYT3 whole entry): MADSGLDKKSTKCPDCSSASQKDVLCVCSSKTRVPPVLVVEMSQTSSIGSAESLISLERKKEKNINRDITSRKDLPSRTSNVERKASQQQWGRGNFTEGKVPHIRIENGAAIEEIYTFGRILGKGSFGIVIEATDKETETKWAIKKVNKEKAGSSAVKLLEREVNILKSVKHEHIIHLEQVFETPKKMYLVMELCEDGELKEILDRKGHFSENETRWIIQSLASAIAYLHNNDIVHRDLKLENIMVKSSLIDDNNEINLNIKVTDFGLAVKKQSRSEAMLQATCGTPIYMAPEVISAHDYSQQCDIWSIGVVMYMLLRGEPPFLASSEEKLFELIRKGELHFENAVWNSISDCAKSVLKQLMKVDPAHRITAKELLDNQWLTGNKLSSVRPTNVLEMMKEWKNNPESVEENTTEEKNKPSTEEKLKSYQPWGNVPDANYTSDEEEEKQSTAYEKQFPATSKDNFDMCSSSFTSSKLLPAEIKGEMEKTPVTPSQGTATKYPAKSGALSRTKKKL
By EC50 is commonly meant the concentration at which the effect is half-maximal. `O=C1N=c2ccccc2=C1NNc1ccc(C(=O)O)cc1` [4-[2-(2-oxidanylideneindol-3-yl)hydrazinyl]benzoic acid]: the 50% effective concentration (EC50) was 36.8 µM.

The compound `Cc1cc(C=C2C(=O)c3ccccc3C2=O)c(C)n1-c1ccc(C(=O)O)cc1` [4-[3-[(1,3-dioxo-2-indenylidene)methyl]-2,5-dimethyl-1-pyrrolyl]benzoic acid] had an EC50 of 19.3 µM.

In turn, `CCOc1ccc(-c2cc(CCCC(=O)NCCCOC)no2)cc1` [4-[5-(4-ethoxyphenyl)-1,2-oxazol-3-yl]-N-(3-methoxypropyl)butanamide] displayed an EC50 of more than 120 µM.

As for `Cc1cc(C(=O)O)ccc1N=Cc1c(O)ccc2ccccc12` [4-[(2-Hydroxy-naphthalen-1-ylmethylene)-amino]-3-methyl-benzoic acid], the EC50 amounted to 22.7 µM.

`Oc1ccc(CN=Nc2ccc(C(F)(F)F)cn2)cc1` [4-[[2-[5-(trifluoromethyl)pyridin-2-yl]hydrazinyl]methylidene]cyclohexa-2,5-dien-1-one] displayed a concentration for a half-maximal effect (EC50) of 14.1 µM.

Compound `O=C(O)c1ccc(NC(=O)c2cccc(C(=O)Nc3ccc(C(=O)O)cc3)n2)cc1` [4-[[6-[(4-carboxyphenyl)carbamoyl]pyridin-2-yl]carbonylamino]benzoic acid] registered a concentration giving a half-maximal response (EC50) of 28.3 µM.

The compound `NC(=S)c1cn(C2OC(CO)C(O)C2O)c2ncnc(N)c12` (stereo not drawn) [4-amino-7-[3,4-dihydroxy-5-(hydroxymethyl)oxolan-2-yl]pyrrolo[2,3-d]pyrimidine-5-carbothioamide] registered a 50% effective concentration (EC50) of 3.48 µM.

`O=C(Nc1nccs1)c1ccc(N2CCOCC2)c([N+](=O)[O-])c1` [4-morpholin-4-yl-3-nitro-N-(1,3-thiazol-2-yl)benzamide] came in with an EC50 of 42.1 µM.

`O=C(O)c1ccc(N=Cc2c(O)ccc3oc4c(c23)CCCC4)cc1` [4-{[1-(2-Hydroxy-6,7,8,9-tetrahydro-dibenzofuran-1-yl)-meth-(E)-ylidene]-amino}-benzoic acid] showed an EC50 of 6.2 µM.

Consider `COc1cc(-c2cc(=O)c3c(O)c(OC)c(OC)c(O)c3o2)ccc1O` [5,8-dihydroxy-2-(4-hydroxy-3-methoxy-phenyl)-6,7-dimethoxy-chromone], for which the midpoint of the response, the EC50, lay at 9.68 µM.

With `COc1cc(C=C2SC(Nc3ccccc3OC)=NC2=O)ccc1O` [5-(4-Hydroxy-3-methoxy-benzylidene)-2-(2-methoxy-phenylimino)-thiazolidin-4-one], the EC50 is 4 µM.

`COc1ccc(-c2nc(-c3ccccn3)no2)cc1` [5-(4-methoxyphenyl)-3-(2-pyridinyl)-1,2,4-oxadiazole] came in with an EC50 of more than 120 µM.

On to `COc1ccc(C2=CC3=C(Br)C(=O)C(C)(O)C(=O)C3=CO2)cc1` (stereo not drawn) [5-bromanyl-3-(4-methoxyphenyl)-7-methyl-7-oxidanyl-isochromene-6,8-dione], for which the EC50 came to 86 µM.

For `O=C(Nc1cccc(-c2cn3cccnc3n2)c1)c1ccc(Br)o1` [5-bromanyl-N-(3-imidazo[1,2-a]pyrimidin-2-ylphenyl)furan-2-carboxamide], the half-maximal effective concentration (EC50) is 16 µM.

`O=C(Nc1ccccc1-c1ccccc1)c1ccc(Br)o1` [5-bromo-N-(2-phenylphenyl)furan-2-carboxamide] came in with an EC50 of 10.8 µM.

The compound `CCN1CCN(c2cc(C)c3cc(NC(=O)c4ccc(Br)o4)ccc3n2)CC1` [5-bromo-N-[2-(4-ethylpiperazin-1-yl)-4-methylquinolin-6-yl]furan-2-carboxamide] showed an EC50 of 18.4 µM.

Consider `Cc1cc(N2C(=O)c3ccc(C(=O)Nc4ccc(O)cc4C(=O)O)cc3C2=O)no1` [5-hydroxy-2-[[[2-(5-methyl-3-isoxazolyl)-1,3-dioxo-5-isoindolyl]-oxomethyl]amino]benzoic acid], for which it took 24 µM to reach a half-maximal effect (EC50).

As for `O=C(c1ccc2c3n(nc2c1)-c1ccccc1CO3)N1CCOCC1` [5H-indazolo[2,3-a][3,1]benzoxazin-9-yl(4-morpholinyl)methanone], the midpoint of the response, the EC50, lay at 18.4 µM.

In turn, `O=C(c1ccc2c3n(nc2c1)-c1ccccc1CO3)N1CCCCC1` [5H-indazolo[2,3-a][3,1]benzoxazin-9-yl(piperidin-1-yl)methanone] gave an EC50 of more than 120 µM.

On to `c1nc(N2CCCC2)c2[nH]cnc2n1` [6-(1-pyrrolidinyl)-7H-purine], for which the midpoint of the response, the EC50, lay at 9.71 µM.

In the case of `CCn1c2ccc(C)cc2c2nc3cc(C(=O)O)ccc3nc21` [6-ethyl-9-methylindolo[2,3-b]quinoxaline-2-carboxylic acid], the EC50 came out at 17.9 µM.

In turn, `C/C=C/Cn1c(SCc2ccc(Cl)cc2)nc2c1c(=O)[nH]c(=O)n2C` [7-[(E)-but-2-enyl]-8-[(4-chlorophenyl)methylsulfanyl]-3-methylpurine-2,6-dione] yielded an EC50 of more than 120 µM.

Compound `O=C1NCCCc2c1oc1ccc(O)cc21` [7-hydroxy-2,3,4,5-tetrahydro-[1]benzofuro[2,3-c]azepin-1-one] yielded an EC50 of 3.71 µM.

`O=c1ccc2cc3c([nH]c4ccc(Br)cc43)oc-2c1O` [9-bromo-4-hydroxy-6H-[1]benzopyrano[2,3-b]indol-3-one] yielded a half-maximal effective concentration (EC50) of 4.01 µM.

`CCn1c2ccccc2c(=O)c2ccccc21` [10-ethyl-9-acridinone] returned an EC50 of 16.7 µM.

Compound `Cn1c(/N=N/c2ccccc2)nc2ccccc21` [(1-methyl-2-benzimidazolyl)-phenyldiazene] came in with a half-maximal effective concentration (EC50) of more than 120 µM.

For `Oc1ccc(/N=C/c2c(O)ccc3ccccc23)cc1` [(1Z)-1-[(4-hydroxyanilino)methylidene]-2-naphthalenone], the EC50 was determined as 2.84 µM.

`N#C/C(=C\c1ccc(O)c(O)c1)C(=O)c1ccc(O)c(O)c1` [(2E)-3-(3,4-dihydroxyphenyl)-2-[(3,4-dihydroxyphenyl)carbonyl]prop-2-enenitrile] registered an EC50 of 44.9 µM.

`CCN(CC)c1ccc(/C=C2/C(=O)c3ccc(C(=O)O)cc3C2=O)cc1` [(2Z)-2-[[4-(diethylamino)phenyl]methylidene]-1,3-dioxoindene-5-carboxylic acid] returned an EC50 of 3.83 µM.

The compound `O=C1Nc2ccccc2C1C=Nc1ccc2c(c1)OCO2` (stereo not drawn) [(3Z)-3-[(1,3-benzodioxol-5-ylamino)methylidene]-1H-indol-2-one] had an EC50 of 11.3 µM.

As for `O=NCc1c(Nc2ccccc2)nc2ccccn2c1=O` [(3Z)-3-[(hydroxyamino)methylene]-2-phenylimino-pyrido[1,2-a]pyrimidin-4-one], the EC50 is 6.22 µM.

On to `O=C(O)Cc1ccc(N=Cc2c(O)ccc3ccccc23)cc1` [(4-{[(2-hydroxy-1-naphthyl)methylene]amino}phenyl)acetic acid], for which the 50% effective concentration (EC50) turned out to be 10.7 µM.

As to `COc1cc(C=Nn2c(-c3ccccc3)n[nH]c2=S)ccc1O` [(4E)-2-methoxy-4-[[(3-phenyl-5-sulfanylidene-1H-1,2,4-triazol-4-yl)amino]methylidene]cyclohexa-2,5-dien-1-one], the response was half-maximal at 7.09 µM (EC50).

Turning to `COc1cc(CN=Nc2ccc(C(F)(F)F)cn2)ccc1O` [(4E)-2-methoxy-4-[[[5-(trifluoromethyl)-2-pyridinyl]hydrazo]methylidene]-1-cyclohexa-2,5-dienone], the response was half-maximal at 19 µM (EC50).

The compound `COc1cc(C=Nn2c(S)nnc2-c2[nH]nc3c2CCC3)ccc1O` [(4E)-2-methoxy-4-[[[5-sulfanylidene-3-(1,4,5,6-tetrahydrocyclopenta[c]pyrazol-3-yl)-1H-1,2,4-triazol-4-yl]amino]methylidene]cyclohexa-2,5-dien-1-one] displayed an EC50 of 10.4 µM.

In turn, `COc1cc(C=Nn2c(C3CCCCC3)n[nH]c2=S)ccc1O` [(4E)-4-[[(3-cyclohexyl-5-sulfanylidene-1H-1,2,4-triazol-4-yl)amino]methylidene]-2-methoxy-cyclohexa-2,5-dien-1-one] yielded an EC50 of 22 µM.

`Oc1ccc(CN=Nc2ccnc3cc(Cl)ccc23)cc1O` [(4Z)-4-[[2-(7-chloroquinolin-4-yl)hydrazinyl]methylidene]-2-hydroxycyclohexa-2,5-dien-1-one] showed an EC50 of 3.05 µM.

For the compound `COc1cc(C=C2SC(N)=NC2=O)ccc1O` [(5Z)-2-azanyl-5-[(3-methoxy-4-oxidanyl-phenyl)methylidene]-1,3-thiazol-4-one], the concentration for a half-maximal effect (EC50) turned out to be 0.936 µM.

Take `CCOc1cc(/C=C2\SC(N3CCCC(C)C3)=NC2=O)ccc1O` (stereo not drawn) [(5Z)-5-[(3-ethoxy-4-hydroxyphenyl)methylidene]-2-(3-methylpiperidin-1-yl)-1,3-thiazol-4-one]: the EC50 was more than 120 µM.

`Nc1nc(N)nc(-c2cc(O)ccc2O)n1` [(6E)-6-(4,6-diamino-1H-1,3,5-triazin-2-ylidene)-4-hydroxycyclohexa-2,4-dien-1-one] had an EC50 of 7.05 µM.

Take `Oc1ccccc1-c1nc(NCCN2CCOCC2)c2ccccc2n1` [(6E)-6-[4-(2-morpholin-4-ylethylamino)-1H-quinazolin-2-ylidene]cyclohexa-2,4-dien-1-one]: the midpoint of the response, the EC50, lay at 14.3 µM.

`CCNc1nc(N)nc(-c2cc(Cl)ccc2O)n1` [(6E)-6-[6-amino-4-(ethylamino)-1H-1,3,5-triazin-2-ylidene]-4-chloro-1-cyclohexa-2,4-dienone] gave a concentration giving a half-maximal response (EC50) of 5.04 µM.

In turn, `COc1ccc(O)c(-c2nc(N)nc(N)n2)c1` [(6Z)-6-[4,6-bis(azanyl)-1H-1,3,5-triazin-2-ylidene]-4-methoxy-cyclohexa-2,4-dien-1-one] gave a concentration giving a half-maximal response (EC50) of 8.14 µM.

`COC(=O)c1cccc2c1-c1ccccc1C2N=O` (stereo not drawn) [(9Z)-9-hydroximinofluorene-4-carboxylic acid methyl ester] came in with an EC50 of 11.8 µM.

For `C[C@H]1CCCC(=O)CCCC=Cc2cc(O)cc(O)c2C(=O)O1` [(11S)-11-methyl-15,17-bis(oxidanyl)-12-oxabicyclo[12.4.0]octadeca-1(18),2,14,16-tetraene-7,13-dione], the EC50 was 44.6 µM.

`CCn1cc(/C=C/C(=O)c2ccc(O)cc2)c(C)n1` [(E)-3-(1-ethyl-3-methyl-4-pyrazolyl)-1-(4-hydroxyphenyl)-2-propen-1-one] had a concentration giving a half-maximal response (EC50) of 9.79 µM.

With `CN(C)/C=C/C(=O)c1ccc2noc(-c3cccc(F)c3)c2c1` [(E)-3-(dimethylamino)-1-[3-(3-fluorophenyl)-2,1-benzoxazol-5-yl]-2-propen-1-one], the concentration for a half-maximal effect (EC50) was found to be 18.7 µM.

On to `COc1ccc(-c2onc3ccc(C(=O)/C=C/N(C)C)cc23)cc1` [(E)-3-(dimethylamino)-1-[3-(4-methoxyphenyl)-2,1-benzoxazol-5-yl]-2-propen-1-one], for which the EC50 worked out at 5.29 µM.
